Results on 1 compound are retold here after US20180153830A1, “SELECTIVE INHIBITORS OF UNDIFFERENTIATED CELLS” (Yissum Research Development Company of the Hebrew …, priority 2012, published 2018).

Molecules are shown by their SMILES.

Holding throughout (type): cell-based
In assay [1] the test system is ES-derived mesenchymal stem cells. Description: CellTiter-Glo counter-screen, mesenchymal stem cells. The conditions noted are these: Homo sapiens, at 20 μM (table title).
Assay [2] concerns neuroblastoma (Kelly) cells. Description: CellTiter-Glo counter-screen, Kelly. The conditions noted are these: Homo sapiens, cancer cells. On the procedure: The neuroblastoma cell line Kelly was cultured in RPMI-1640 medium, supplemented with 15% fetal bovine serum (FBS), penicillin (50 U/ml) and streptomycin (50 μg/ml).
(§1) 696 confirmed hits from the confirmation screen were tested for profiling in a panel of 13 different cell types, using the same screening protocol described above (except in the case of embryonic stem cell-derived neural stem cells (NSCs) and mesenchymal stem cells (MSCs), for which the protocol is described below). As discussed below, compounds were tested either in dose-dependent multiple concentration manner or in single concentration manner. CSES2 and CSES2-SO2/3 cell lines and the early endodermal progenitors derived from this cell line (CSES2-SO2/3-differentiated) were screened at 8 concentrations ranging from 50 μM to 23 nM with 1:3 serial dilution steps. BJ-iPS28 cell line and the BJ fibroblasts from which it was derived were screened at 6 concentrations ranging from 50 μM to 200 nM with 1:3 serial dilution steps. Cardiomyocytes were screened in one concentration of 20 μM. HeLa and NTERA-2 cell lines were screened in duplicates of 20 μM. Kelly and Huh-7 were screened in triplicates of 20 μM. Hepatocytes were screened in duplicates of 20 μM in the original 96-well plates in which the cells arrived (40,000 cells per well, in 160 μl medium, the volumes of all reagents involved were adjusted accordingly). MSCs and NSCs were screened in duplicates of 12.5 μM.
(§2) In order to identify highly-selective cytotoxic inhibitors of hPSCs, the 696 cytotoxic inhibitors of hPSCs identified as described in Example 1 were counter-screened as described in the Materials and Methods section against other cell types, representative of all germ layers and developmental stages. Importantly, many of these cell types were differentiated from human ES or iPS cells. The screened cell types included ES-derived neural stem cells (NSCs), ES-derived mesenchymal stem cells (MSCs), ES-derived endodermal progenitor cells, ES-derived hepatocytes, iPS-derived cardiomyocytes, iPS-derived fibroblasts of origin (BJ fibroblasts), and three cancer cell lines: neuroblastoma (Kelly), cervical cancer (HeLa) and hepatocarcinoma (Huh7). The cell types and their relationship to stem cells are depicted schematically in FIG. 14.
(Cellular ATP, detected with luciferase, serves as a proxy for viable cell number.)

The subject of assay [3] is iPS-derived cardiomyocytes. The experiment in a line: CellTiter-Glo counter-screen, cardiomyocytes. As to conditions: Homo sapiens, Cardiomyocyte. The method, then: Human induced pluripotent stem cell-derived cardiomyocytes were obtained from Cellular Dynamics International (Madison, Wis.), and handled according to the manufacturer's instructions;
as §1, §2

Assay [4] concerns ES-derived neural stem cells. The experiment in a line: CellTiter-Glo counter-screen, neural stem cells. The conditions noted are these: Homo sapiens, Neural stem cell.
Assay [5] deals with BJ-iPS28 induced pluripotent stem cells. Description: CellTiter-Glo luminescent cell viability screen, BJ-iPS28. The conditions noted are these: Homo sapiens. The method, then: 5,000 CSES2 cells were plated in 50 μl per well of mTeSR1 medium into black 384-well clear-bottom plates (Falcon BD) pre-coated with Matrigel™ using WellMate cell dispenser (Matrix, Hudson, N.H.). 24 hours after plating, medium was replaced with 25 μl of fresh medium and 25 μl of 40 μM compound medium solutions in 1% DMSO from the intermediate compound dilution plates. The plates were incubated at 37° C., in a 5% CO2 atmosphere, for the entire duration of the screen, apart from the time required for liquid handling. Cell viability was determined 24 hours after compound treatment using CellTiter-Glo® luminescent cell viability assay kits. 50 μl of CellTiter-Glo® reagent was added to each well of the assay plates and fully mixed. After incubation at room temperature for 15 minutes, 25 μl of liquid was transferred from each well into a white opaque-bottom 384-well plate (PerkinElmer), and luminescence was measured using an EnVision® plate reader (PerkinElmer). 16 neutral control wells (0.5% DMSO) and 8 positive control wells (5 μM amsacrine hydrochloride were used to normalize the compound effect. All liquid transfer steps were handled with a Biomek® FXP Laboratory Automation Workstation (Beckman Coulter, Fullerton, Calif.) and Muitidrop Combi liquid dispenser (Thermo Fisher, Waltham, Mass.). An Assay Analyzer (Genedata, Basel, Switzerland) was used for data pattern correction and calculation. The Spotfire software (Spotfire, Somerville, Mass.) was used for data illustration.
as §1, with “BJ-iPS28 cell line and the BJ fibroblasts from which it was derived were screened at 6 concentrations ranging from 50 μM to 200 nM with 1:3 serial dilution steps.” left out
The raw intensity data for each well were background-corrected by subtraction of the median intensities across all positive control wells on the same plate, and used to calculate the inhibitory effect of each compound per cell line. A Genedata Assay Analyzer and Condoseo were used for data pattern correction, calculation and IC50 curve fitting. A Z′ factor was determined for each plate.
The effect of the selected compounds on human iPS cells was then determined. […]

In assay [6] the test system is human embryonic stem cells. Description: Oleic acid rescue assay. The conditions noted are these: 20 μM PluriSIn (2 μM amsacrine); up to 100 μM BSA-OA. The method, then: Human embryonic stem cells were cultured without feeder cells in CELLSTAR® 24-well tissue culture plates (Greiner Bio-One) pre-coated with Matrigel™, using mTeSR1 defined medium. […] After 24 hours, the cells were subjected to microscopy imaging and to cell viability measurements.
In order to further investigate the effect of SCD activity on hPSC viability, the ability of exogenous supplementation of oleic acid (the direct product of SCD1) to rescue cells from PluriSIn-induced apoptosis was further studied, using procedures described in the Materials and Methods section. Cells were exposed to PluriSn #1 in the presence of increasing concentrations of BSA-conjugated oleic acid (BSA-OA).
For comparison, cells were exposed to 20 μM of PluriSIn #1, #2, #3 and #6 in the presence of 100 μM BSA-OA.

In the next assay the test system is Huh7 cells. The experiment in a line: CellTiter-Glo counter-screen, Huh7. The conditions noted are these: Homo sapiens, Huh-7, cancer cells. On the procedure:
The hepatocarcinoma cell line Huh-7 was cultured in a DMEM/F12 (1:1) medium, supplemented with 10% FBS, penicillin (50 U/ml) and streptomycin (50 μg/ml).
as §1, §2

In general, inhibition refers to the change of the read-out against control, counted positive when it falls. Usually EC50 stands for the midpoint of the concentration-response curve. A high value points to a less potent agent. For the compound `Cc1ccc(NNC(=O)C(O)(c2ccccc2)c2cccs2)cc1` (centres unmarked) [PluriSIn #6, 2-hydroxy-2-(thiophen-2-yl)-2-phenylacetic acid 4-methyl-N′-phenylhydrazide], the inhibition at 12.5 µM is -19.7% in assay [1] and 16.5% in assay [4]. The inhibition at 20 µM was found to be 1.8% in assay [2]; 2.6% in assay [3]; 83.3% in assay [5] (at 20 μM, pluripotent stem cells); 4.6% with Huh7 cells. The midpoint of the response in assay [5] (24 h), the EC50, lay at 2260 nM. The “protection by BSA-conjugated oleic acid (BSA-OA) against cell death induced by the compound” value in assay [6] is listed as “protected”.
